# In publication PMC6209530 (Journal of the American Chemical Society, 2018):
# Read-outs that look alike come from different tables or passages of the source. Peptide text beside a SMILES is read from it. * marks the point of attachment. X1 = CCCCCCCCCCCCCCCC(=O)OCC(C*)OC(=O)CCCCCCCCCCCCCCC; Palmitoyl = CCCCCCCCCCCCCCCC(=O)*
# Assays:
# [1] = tested on: differentiated human THP-1 cells; assay type: cell-based
# [2] = tested on: human foreskin (HFF) fibroblast cells; assay: cell growth inhibition; assay type: cell-based; conditions: read-out: IC50, cell growth inhibition
# [3] = tested on: HCT116 human colon cancer; assay: cell growth inhibition; assay type: cell-based; conditions: read-out: IC50, cell growth inhibition
# mice = conditions: cited from earlier work; for adjuvant activity in mice: intramuscular (i.m.) injection with antigen (OVA)
# L1210 mouse leukemia = assay: cell growth inhibition; assay type: cell-based; conditions: read-out: IC50, cell growth inhibition
# [4] = tested on: mouse (NIH/3T3) fibroblast cells; assay: cell growth inhibition; assay type: cell-based; conditions: read-out: IC50, cell growth inhibition
# human THP-1 cells = assay: cell growth inhibition; assay type: cell-based; conditions: read-out: IC50, cell growth inhibition
# B16 mouse melanoma = assay: cell growth inhibition; assay type: cell-based; conditions: read-out: IC50, cell growth inhibition
# mouse macrophages [5] = assay: stimulated release of TNF-α from mouse macrophages; assay type: cell-based; conditions: read-out: EC50, stimulated release of TNF-α
# TLR1 and TLR2 = TLR1 and TLR2 (Mus musculus, UniProt Q9EPQ1+Q9QUN7); assay type: cell-based; conditions: 500 nM, macrophages from mutant or knockout mice
# Chain of TLR1 and TLR2 (Q9EPQ1 26-795): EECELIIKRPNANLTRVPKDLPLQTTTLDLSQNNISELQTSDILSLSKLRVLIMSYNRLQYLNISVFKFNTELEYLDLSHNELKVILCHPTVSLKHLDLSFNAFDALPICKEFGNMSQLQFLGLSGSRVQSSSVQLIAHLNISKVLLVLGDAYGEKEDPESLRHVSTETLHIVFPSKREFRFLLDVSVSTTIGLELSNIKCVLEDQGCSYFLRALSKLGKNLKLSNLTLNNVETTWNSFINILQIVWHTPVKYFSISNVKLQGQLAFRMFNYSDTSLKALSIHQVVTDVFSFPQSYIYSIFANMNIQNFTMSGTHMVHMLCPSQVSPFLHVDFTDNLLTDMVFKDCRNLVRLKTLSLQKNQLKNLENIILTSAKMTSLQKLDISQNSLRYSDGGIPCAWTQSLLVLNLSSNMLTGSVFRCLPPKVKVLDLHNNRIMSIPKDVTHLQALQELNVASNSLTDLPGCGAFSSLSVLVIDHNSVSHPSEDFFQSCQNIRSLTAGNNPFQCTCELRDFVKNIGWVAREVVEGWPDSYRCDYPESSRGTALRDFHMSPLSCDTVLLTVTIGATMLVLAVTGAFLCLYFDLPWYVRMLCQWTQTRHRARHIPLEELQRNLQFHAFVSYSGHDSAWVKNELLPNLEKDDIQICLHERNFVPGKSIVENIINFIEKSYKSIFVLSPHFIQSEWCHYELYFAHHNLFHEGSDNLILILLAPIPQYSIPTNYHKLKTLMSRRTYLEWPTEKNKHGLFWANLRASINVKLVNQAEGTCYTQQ
# Chain of TLR1 and TLR2 (Q9QUN7 25-784): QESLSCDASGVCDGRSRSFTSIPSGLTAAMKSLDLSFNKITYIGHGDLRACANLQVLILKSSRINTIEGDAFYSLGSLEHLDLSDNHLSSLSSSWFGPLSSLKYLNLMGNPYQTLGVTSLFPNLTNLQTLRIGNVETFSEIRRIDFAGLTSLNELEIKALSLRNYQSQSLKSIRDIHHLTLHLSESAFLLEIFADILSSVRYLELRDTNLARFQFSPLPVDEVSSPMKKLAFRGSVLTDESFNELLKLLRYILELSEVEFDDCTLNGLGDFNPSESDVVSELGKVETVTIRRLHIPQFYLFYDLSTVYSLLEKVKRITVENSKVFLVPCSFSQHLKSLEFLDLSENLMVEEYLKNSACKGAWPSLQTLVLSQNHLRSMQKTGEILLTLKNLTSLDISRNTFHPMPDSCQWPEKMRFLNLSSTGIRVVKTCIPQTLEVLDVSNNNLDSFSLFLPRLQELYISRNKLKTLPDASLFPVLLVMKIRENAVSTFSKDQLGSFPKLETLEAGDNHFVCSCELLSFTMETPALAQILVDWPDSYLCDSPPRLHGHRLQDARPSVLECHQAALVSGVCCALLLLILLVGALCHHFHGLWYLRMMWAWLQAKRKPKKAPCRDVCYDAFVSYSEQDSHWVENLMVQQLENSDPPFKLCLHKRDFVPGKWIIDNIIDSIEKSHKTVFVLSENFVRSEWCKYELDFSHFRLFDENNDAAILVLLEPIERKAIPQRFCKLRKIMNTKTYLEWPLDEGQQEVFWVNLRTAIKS
# mouse macrophages [6] = assay: cell growth inhibition; assay type: cell-based; conditions: read-out: IC50, cell growth inhibition
# [7] = tested on: IKKα, IKKβ, p38, JNK, and ERK; conditions: cited from earlier work
# [8] = tested on: murine melanoma (B16-OVA); conditions: combination with anti-PD-L1, diprovocim/OVA i.m., cited from earlier work
# [9] = read-out: EC50, stimulated release of TNF-α, differentiated human THP-1 cells
compound,measurement,setting,value
O=C(NCCc1ccc(F)cc1)C1CN(C(=O)c2ccc(C(=O)N3CC(C(=O)NCCc4ccc(F)cc4)C(C(=O)NCCc4ccc(F)cc4)C3)cc2)CC1C(=O)NCCc1ccc(F)cc1 (centres unmarked) [Compound 69],EC50,[1]; [9],100 nM
"CCCCCCCCCCCCCCCC(=O)N[C@@H](CSCC(COC(=O)CCCCCCCCCCCCCCC)OC(=O)CCCCCCCCCCCCCCC)C(=O)N[C@@H](CO)C(=O)N[C@@H](CCCCN)C(=O)N[C@@H](CCCCN)C(=O)N[C@@H](CCCCN)C(=O)N[C@@H](CCCCN)C(=O)O (some centres unmarked) [Pam3CSK4, reference compound] (Palmitoyl-C(X1)SKKKK-OH; N-terminus and C-terminus assumed)",EC50,[1],0.91 nM
O=C(NCCc1ccc(F)cc1)[C@@H]1CN(C(=O)c2ccc(C(=O)N3C[C@@H](C(=O)NCCc4ccc(F)cc4)[C@H](C(=O)NCCc4ccc(F)cc4)C3)cc2)C[C@H]1C(=O)NCCc1ccc(F)cc1 [Compound 4],fold more potent than the all racemate (69),[1]; human THP-1 cells,3 fold
same,EC50,[1]; [9],50 nM
O=C(N[C@H]1C[C@@H]1c1ccccc1)[C@@H]1CN(C(=O)c2ccc(C(=O)N3C[C@@H](C(=O)N[C@H]4C[C@@H]4c4ccccc4)[C@H](C(=O)N[C@H]4C[C@@H]4c4ccccc4)C3)cc2)C[C@H]1C(=O)N[C@H]1C[C@@H]1c1ccccc1 [Compound 3],IC50,[2],> 10000 nM
same,IC50,[3],> 10000 nM
same,adjuvant activity in TLR1 and TLR2 deficient mice,"mice; i.m. with OVA, TLR1 and TLR2 deficient mice",inactive
same,adjuvant activity in mice,mice,active as an adjuvant
same,adjuvant activity in mice,mice; listed as Diprovocim-1,acts as an adjuvant
same,IC50,L1210 mouse leukemia,> 10000 nM
same,IC50,[4],> 10000 nM
same,IC50,human THP-1 cells,> 10000 nM
same,IC50,B16 mouse melanoma,> 10000 nM
same,times more potent than Pam3CSK4,"[1]; direct side-by-side comparison, human THP-1 cells",5–10 times
same,potency differential human THP-1 cells versus mouse macrophages,[1]; human versus mouse cell release of TNF-α,10 fold
same,EC50,[1]; [9],0.11 nM
same,EC50,mouse macrophages [5],1.3 nM
same,dependence of activity on downstream signaling proteins,TLR1 and TLR2,"dependent on TLR1/TLR2 signaling through MyD88, TIRAP, and IRAK4"
same,IC50,mouse macrophages [6],> 10000 nM
same,"phosphorylation and activation of IKKα, IKKβ, p38, JNK, and ERK",[7],induce the phosphorylation and activation
same,protection from tumor rechallenge,[8],protected mice from tumor rechallenge
same,survival of mice implanted with B16-OVA melanoma,[8],cured or prolonged survival of mice
same,survival of mice implanted with B16-OVA melanoma,[8]; listed as diprovocim-1,cured or prolonged the survival of mice
